{"source": "patent US8916499B2", "about": "“Herbicidal compositions comprising 4-amino-3-chloro-5-fluoro-6-(4-chloro-2-fluoro-3-methoxyphenyl) pyridine-2-carboxylic acid or a derivative thereof and a protoporphyrinogen oxidase inhibitor” (Dow AgroSciences LLC, priority 2012, dated 2014)", "key": {"[1]": {"tested_on": "SETVI", "assay": "Pre-emergence soil-applied weed control, greenhouse (Example IV)", "type": "in vivo, Setaria viridis (L.) Beauv.", "conditions": "105 g ai/ha alone", "from_the_text": "(§1) Seeds or nutlets of the desired test plant species were planted in a soil matrix prepared by mixing a loam soil (32 percent silt, 23 percent clay, and 45 percent sand, with a pH of about 6.5 and an organic matter content of about 1.9 percent) and calcareous grit in an 80 to 20 ratio. The soil matrix was contained in plastic pots with a volume of 1 quart and a surface area of 83.6 square centimeters (cm^2).\n(§2) Treatments consisted of the benzyl ester of 4-amino-3-chloro-5-fluoro-6-(4-chloro-2-fluoro-3-methoxy-phenyl)pyridine-2-carboxylic acid (compound A) formulated as an SC (suspension concentrate) and various herbicidal components alone and in combination. Forms of compound A were applied on an acid equivalent basis.\n(§3) Other herbicidal components were applied on an acid equivalent or active ingredient basis and included the protoporphyrinogen oxidase (PPO)-inhibiting herbicides, flumioxazin formulated as Payload® and oxadiazon formulated as Ronstar® 50W.\n(§4) Treatment requirements were calculated based upon the rates being tested, the concentration of active ingredient or acid equivalent in the formulation, and a 12 mL application volume at a rate of 187 L/ha.\nFor treatments comprised of formulated compounds, measured amounts of compounds were placed individually in 25 mL glass vials and diluted in a volume of 1.25% (v/v) Agri-Dex® crop oil concentrate (COC) to obtain 12× stock solutions. […] Application solutions were prepared by adding an appropriate amount of each stock solution (e.g., 1 mL) and diluted to the appropriate final concentrations with the addition of 10 mL of an aqueous mixture of 1.25% (v/v) COC so that the final spray solutions contained 1.25% (v/v) COC. […]\n(§5) The treated and control pots were placed in a greenhouse and top watered as needed. […] After approximately 4 weeks, the condition of the test plants as compared with that of the untreated plants was determined visually and scored on a scale of 0 to 100 percent where 0 corresponds to no injury or growth inhibition and 100 corresponds to complete kill. […]"}, "[2]": {"tested_on": "XANST", "assay": "Pre-emergence soil-applied weed control, greenhouse (Example IV)", "type": "in vivo, Xanthium strumarium L.", "from_the_text": "as §1, §2, §3, §4\n(§6) For treatments comprised of formulated compounds, measured amounts of compounds were placed individually in 25 mL glass vials and diluted in a volume of 1.25% (v/v) Agri-Dex® crop oil concentrate (COC) to obtain 12× stock solutions. […] Application solutions were prepared by adding an appropriate amount of each stock solution (e.g., 1 mL) and diluted to the appropriate final concentrations with the addition of 10 mL of an aqueous mixture of 1.25% (v/v) COC so that the final spray solutions contained 1.25% (v/v) COC.\n(§7) All stock solutions and applications solutions were visually inspected for compound compatibility prior to application. Spray solutions were applied to the soil with an overhead Mandel track sprayer equipped with a 8002E nozzles calibrated to deliver 187 L/ha over an application area of 0.503 m^2 at a spray height of 18 inches (46 cm) above average pot height. Control pots were sprayed in the same manner with the solvent blank.\nas §5, with “needed. When required to ensure good germination and healthy plants, a fungicide treatment and/or other chemical or physical treatment was applied. The pots were maintained in a greenhouse with an approximate 14 hr photoperiod which was maintained at about 29° C. during the day and 26° C. during the night.” for “needed.”"}, "[3]": {"tested_on": "IPOHE", "assay": "Pre-emergence soil-applied weed control, greenhouse (Example IV)", "type": "in vivo, Ipomoea hederacea (L.) Jacq.", "from_the_text": "as §1, §2, §3, §4, §6, §7\nThe treated and control pots were placed in a greenhouse and top watered as needed. When required to ensure good germination and healthy plants, a fungicide treatment and/or other chemical or physical treatment was applied. The pots were maintained in a greenhouse with an approximate 14 hr photoperiod which was maintained at about 29° C. during the day and 26° C. during the night. Nutrients (Peters® Excel 15-5-15 5-Ca 2-Mg) were applied in the irrigation solution as needed and water was added on a regular basis. Supplemental lighting was provided with overhead metal halide 1000-Watt lamps as necessary. After approximately 4 weeks, the condition of the test plants as compared with that of the untreated plants was determined visually and scored on a scale of 0 to 100 percent where 0 corresponds to no injury or growth inhibition and 100 corresponds to complete kill.\nColby's equation was used to determine the herbicidal effects expected from the mixtures (Colby, S. R. 1967. Calculation of the synergistic and antagonistic response of herbicide combinations. Weeds 15:20-22.).\nThe following equation was used to calculate the expected activity of mixtures containing two active ingredients, A and B: Expected=A+B−(A×B/100)"}, "[4]": {"tested_on": "LEFCH", "assay": "Postemergence foliar-applied weed control, direct seeded rice, greenhouse (Example I)", "type": "in vivo, Leptochloa chinensis (L.) Nees"}, "[5]": {"tested_on": "LEFCH", "assay": "In-water applied weed control, transplanted paddy rice, greenhouse (Example II)", "type": "in vivo, Leptochloa chinensis (L.) Nees"}, "[6]": {"tested_on": "ISCRU", "assay": "Postemergence foliar-applied weed control, direct seeded rice, greenhouse (Example I)", "type": "in vivo, Ischaemum rugosum Salisb.", "conditions": "g ae/ha Compound A Benzyl Ester+g ai/ha saflufenacil: r49 8+0, r50 16+0, r51 0+10, r52 0+20, r53 8+10, r54 16+10, r55 8+20, r56 16+20"}, "[7]": {"tested_on": "ECHOR", "assay": "In-water applied weed control, transplanted paddy rice, greenhouse (Example II)", "type": "in vivo, Echinochloa oryzoides (Ard.) Fritsch"}, "[8]": {"tested_on": "ECHCO", "assay": "Postemergence foliar-applied weed control, direct seeded rice, greenhouse (Example I)", "type": "in vivo, Echinochloa colona (L.) Link", "conditions": "g ae/ha Compound A Benzyl Ester+g ai/ha saflufenacil: r14 4.38+0, r15 8.75+0, r16 0+10, r17 0+20, r18 4.38+10, r19 8.75+10, r20 4.38+20, r21 8.75+20"}, "[9]": {"tested_on": "CYPRO", "assay": "In-water applied weed control, transplanted paddy rice, greenhouse (Example II)", "type": "in vivo, Cyperus rotundus L.", "conditions": "10 g ai/ha alone"}, "[10]": {"tested_on": "ECHCG", "assay": "In-water applied weed control, transplanted paddy rice, greenhouse (Example II)", "type": "in vivo, Echinochloa crus-galli (L.) P. Beauv."}}, "data": [{"smiles": "C#CCN1C(=O)COc2cc(F)c(N3C(=O)C4=C(CCCC4)C3=O)cc21", "note": "[Fumioxazin]", "values": [{"measurement": "Visual Weed Control (%) - 28 DAA SETVI Obs", "setting": "[1]", "value": 73, "unit": "%"}, {"measurement": "Visual Weed Control (%) - 29 DAA XANST Obs", "setting": "[2]; 105 g ai/ha alone", "value": 18, "unit": "%"}, {"measurement": "Visual Weed Control (%) - 29 DAA XANST Obs", "setting": "[2]; 210 g ai/ha alone", "value": 48, "unit": "%"}, {"measurement": "Visual Weed Control (%) - 28 DAA IPOHE Obs", "setting": "[3]; 105 g ai/ha alone", "value": 70, "unit": "%"}, {"measurement": "Visual Weed Control (%) - 28 DAA IPOHE Obs", "setting": "[3]; 210 g ai/ha alone", "value": 70, "unit": "%"}, {"measurement": "Visual Weed Control (%) - 28 DAA IPOHE Obs", "setting": "[3]; 420 g ai/ha alone", "value": 90, "unit": "%"}]}, {"smiles": "CC(C)N(C)S(=O)(=O)NC(=O)c1cc(-n2c(=O)cc(C(F)(F)F)n(C)c2=O)c(F)cc1Cl", "note": "[Saflufenacil, 2-chloro-5-[3,6-dihydro-3-methyl-2,6-dioxo-4-(trifluoromethyl)-1(2H)-pyrimidinyl]-4-fluoro-N-[[methyl(1-methylethyl)amino]sulfonyl]benzamide, reference compound]", "values": [{"measurement": "Visual Weed Control (%) - 20 DAA LEFCH Obs", "setting": "[4]; g ae/ha Compound A Acid+g ai/ha saflufenacil: r11 4.38+0, r12 8.75+0, r13 17.5+0, r14 0+5, r15 4.38+5, r16 8.75+5, r17 17.5+5", "value": 0, "unit": "%"}, {"measurement": "Visual Weed Control (%) - 20 DAA LEFCH Obs", "setting": "[4]; g ae/ha Compound A Benzyl Ester+g ai/ha saflufenacil: r26 8.75+0, r27 17.5+0, r28 0+5, r29 0+10, r30 8.75+5, r31 17.5+5, r32 8.75+10, r33 17.5+10", "value": 0, "unit": "%"}, {"measurement": "Visual Weed Control (%) - 20 DAA LEFCH Obs", "setting": "[5]; 10 g ai/ha alone", "value": 0, "unit": "%"}, {"measurement": "Visual Weed Control (%) - 20 DAA LEFCH Obs", "setting": "[5]; 20 g ai/ha alone", "value": 0, "unit": "%"}, {"measurement": "Visual Weed Control (%) - 21 DAA LEFCH Obs", "setting": "[5]; 40 g ai/ha alone", "value": 5, "unit": "%"}, {"measurement": "Visual Weed Control (%) - 21 DAA ISCRU Obs", "setting": "[6]", "value": 0, "unit": "%"}, {"measurement": "Visual Weed Control (%) - 20 DAA ECHOR Obs", "setting": "[7]; 10 g ai/ha alone", "value": 0, "unit": "%"}, {"measurement": "Visual Weed Control (%) - 20 DAA ECHOR Obs", "setting": "[7]; 20 g ai/ha alone", "value": 0, "unit": "%"}, {"measurement": "Visual Weed Control (%) - 20 DAA ECHCO Obs", "setting": "[8]", "value": 40, "unit": "%"}, {"measurement": "Visual Weed Control (%) - 20 DAA CYPRO Obs", "setting": "[9]", "value": 0, "unit": "%"}, {"measurement": "Visual Weed Control (%) - 20 DAA ECHCG Obs", "setting": "[10]; 10 g ai/ha alone", "value": 0, "unit": "%"}, {"measurement": "Visual Weed Control (%) - 20 DAA ECHCG Obs", "setting": "[10]; 20 g ai/ha alone", "value": 10, "unit": "%"}]}]}
